These results are taken from patent US11198695B2, “Fused ring derivative having MGAT-2 inhibitory activity” (Shionogi & Co., Ltd., priority 2017, dated 2021).

Sequence of recombinant human MGAT2 (Q3SYC2 whole entry): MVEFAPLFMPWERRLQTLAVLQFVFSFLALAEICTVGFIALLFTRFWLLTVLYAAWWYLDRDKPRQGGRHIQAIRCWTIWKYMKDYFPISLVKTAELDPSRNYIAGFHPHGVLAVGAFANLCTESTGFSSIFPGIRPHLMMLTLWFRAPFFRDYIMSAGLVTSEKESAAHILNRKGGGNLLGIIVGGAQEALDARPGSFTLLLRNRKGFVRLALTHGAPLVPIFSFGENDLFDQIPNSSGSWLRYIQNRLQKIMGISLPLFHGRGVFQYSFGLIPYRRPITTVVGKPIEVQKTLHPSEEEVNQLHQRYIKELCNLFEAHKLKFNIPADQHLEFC

For the test, the target named is recombinant human MGAT2 (Homo sapiens (Human), UniProt Q3SYC2). In words: Measurement of human MGAT2 inhibitory activity. The class given is biochemical. The conditions noted are these: read-out: IC50 (concentration exhibiting 50% enzyme inhibition), Table 53. Put shortly:
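RapidFire ESI-MS read-out of the diolein/diolein-d5 peak ratio gave % inhibition, with no-enzyme and full-enzyme wells as 100% and 0%. Reactions ran 1 h at room temperature at pH 7.4 (phosphate, 2 mmol/L DTT), using Flag-tagged human MGAT2 membranes from Sf9 cells and a substrate solution of 30 μmol/L 2-oleoylglycerol and 10 μmol/L oleoyl-CoA.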
In the case of `N#Cc1ccc(-n2nc3c(c2C(=O)NCC(N)=O)C(=O)N[C@]2(CCc4cc(OCC(F)(F)F)ccc42)C3)nc1` [II-245], the IC50 was found to be 11.3 nM.
Then `N#Cc1ccc(-n2nc3c(c2C(=O)NCCS(N)(=O)=O)C(=O)N[C@]2(CCc4cc(OCC(F)(F)F)ccc42)C3)nc1` [II-246], with 3.73 nM; and `COCCS(=O)(=O)NC(=O)c1c2c(nn1-c1ccc(C)c(F)c1)C[C@]1(CCc3cc(OCC(F)(F)F)ccc31)NC2=O` [II-247], with 48.4 nM; and `Cc1ccc(-n2nc3c(c2NC(=O)CS(C)(=O)=O)C(=O)N[C@@]2(CCOc4cc(OCC(F)(F)F)ccc42)C3)cc1F` [II-248], with 1.8 nM.
For `Cc1ccc(-n2nc3c(c2C(=O)NCC2(CO)CC2)C(=O)N[C@@]2(CCOc4cc(OCC(F)(F)F)ccc42)C3)nc1` [II-249], the IC50 amounted to 13.4 nM.
As for `CS(=O)(=O)CC(=O)Nc1c2c(nn1-c1ccc(F)c(F)c1)C[C@]1(CCOc3cc(Cl)ccc31)NC2=O` [II-250], the figure is 3.91 nM.
As for `Cc1cc(-n2nc3c(c2C(=O)NCC#N)C(=O)N[C@@]2(CCc4cc(OCC(F)(F)F)ccc42)C3)no1` [II-251], the figure is 10.1 nM; as for `Cc1cc(-n2nc3c(c2C(=O)NCC(F)(F)F)C(=O)N[C@@]2(CCc4cc(OCC(F)(F)F)ccc42)C3)no1` [II-252], 22.6 nM; as for `Cc1cc(-n2nc3c(c2C(=O)NCC(N)=O)C(=O)N[C@@]2(CCc4cc(OCC(F)(F)F)ccc42)C3)no1` [II-253], 4.28 nM.
Then `Cc1cc(-n2nc3c(c2C(=O)NCCS(N)(=O)=O)C(=O)N[C@@]2(CCc4cc(OCC(F)(F)F)ccc42)C3)no1` [II-254], with 45.7 nM.
With `CC(F)(F)COc1ccc2c(c1)CC[C@@]21Cc2nn(CCCOC(F)(F)F)c(NC(=O)CS(C)(=O)=O)c2C(=O)N1` [II-255], the IC50 was 2.74 nM.
As for `CS(=O)(=O)CC(=O)Nc1c2c(nn1-c1cc(C(F)(F)F)on1)C[C@]1(CCOc3cc(OCC(F)(F)F)ccc31)NC2=O` [II-256], the figure is 5.26 nM.
Then `CC(C)(C)c1cc(-n2nc3c(c2NC(=O)CS(C)(=O)=O)C(=O)N[C@@]2(CCOc4cc(OCC(F)(F)F)ccc42)C3)no1` [II-257], with 0.409 nM; and `CS(=O)(=O)CC(=O)Nc1c2c(nn1-c1ccc(C(F)F)nn1)C[C@]1(CCc3cc(OCCCC(F)(F)F)ccc31)NC2=O` [II-258], with 0.285 nM; and `CS(=O)(=O)CC(=O)Nc1c2c(nn1-c1ccc(C3CC3)nn1)C[C@]1(CCc3cc(OCCCC(F)(F)F)ccc31)NC2=O` [II-259], with 0.439 nM.
As for `CS(=O)(=O)CC(=O)Nc1c2c(nn1CCC1CC1)C[C@]1(CCc3c1ccc(N1CC(F)(F)C1)c3F)NC2=O` [II-260], the figure is 14 nM.
Turning to `CS(=O)(=O)CC(=O)Nc1c2c(nn1CCCOC(F)(F)F)C[C@@]1(CCc3cc(OCC(F)(F)C(F)(F)F)ccc31)NC2=O` [II-261], the IC50 worked out at 1 nM.
As for `O=C1N[C@@]2(CCc3cc(OCC(F)(F)F)ccc32)Cc2nn(CCCOC(F)F)c(C(=O)NS(=O)(=O)C3CC3)c21` [II-262], the figure is 8.83 nM; as for `Cc1ccc(-n2nc3c(c2NC(=O)CC#N)C(=O)N[C@@]2(CCOc4cc(OCC(F)(F)F)ccc42)C3)nc1` [II-263], 40 nM; as for `NS(=O)(=O)CCNC(=O)c1c2c(nn1CCCOC(F)F)C[C@]1(CCc3cc(OCC(F)(F)F)ccc31)NC2=O` [II-264], 16.1 nM.
Then `O=C1N[C@@]2(CCc3cc(OCC(F)(F)F)ccc32)Cc2nn(CCCOC(F)F)c(C(=O)NCC3(O)CC3)c21` [II-265], with 54.4 nM; and `Cc1cc(-n2nc3c(c2NC(=O)CS(C)(=O)=O)C(=O)N[C@@]2(CCOc4cc(Cl)ccc42)C3)no1` [II-266], with 1.81 nM.
As for `Cc1cc(-n2nc3c(c2NC(=O)CS(C)(=O)=O)C(=O)N[C@@]2(CCOc4cc(CCC(F)(F)F)ccc42)C3)no1` [II-267], the figure is 1 nM; as for `Cc1cc(-n2nc3c(c2NC(=O)CS(C)(=O)=O)C(=O)N[C@@]2(CCc4cc(OCCCC(F)(F)F)ccc42)C3)nn1C` [II-268], 1.24 nM.
